According to the supplement of paper PMC10307832:

Key:
Assay in all cases: relative viability (nuclei count vs DMSO), 5 days (fraction); higher = more cells survive
Dabrafenib = compound: CC(C)(C)c1nc(-c2cccc(NS(=O)(=O)c3c(F)cccc3F)c2F)c(-c2ccnc(N)n2)s1 [Dabrafenib]
How it was run: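 A plate was accepted only when its control CV was below 25% and the cells had doubled at least once. Viability is defined from nuclear counts as treated wells divided by vehicle wells, with the median taken across plates. That median covers lung cancer cell lines grown in 1536-well plates, dosed by pinning at five √10-spaced library-drug concentrations, and counted in MetaXpress from 4× Hoechst images after 5 days.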

VX-702 + OSI-027 = compound: NC(=O)c1ccc(N(C(N)=O)c2c(F)cccc2F)nc1-c1ccc(F)cc1F [VX-702] + COc1cccc2cc(-c3nc([C@H]4CC[C@H](C(=O)O)CC4)n4ncnc(N)c34)[nH]c12 [OSI-027] (partner 0.5 µM)
How it was run: (§1)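 A single step with final 0.05% Triton X-100, 1% formaldehyde and 1 ug/ml Hoechst fixed the cells and stained nuclei 5 days after treatment. Lung cancer cell lines in 1536-well plates had been treated by pin tool the day after seeding with one drug alone or a fixed anchor-drug dose plus five library-drug doses (not always all listed) in √10 steps, and nuclei were counted on 4× images. Relative viability is the ratio of nuclei in treated wells to nuclei in vehicle wells, taken as the median of duplicate plates.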

VX-702 + Vorinostat = compound: NC(=O)c1ccc(N(C(N)=O)c2c(F)cccc2F)nc1-c1ccc(F)cc1F [VX-702] + O=C(CCCCCCC(=O)Nc1ccccc1)NO [Vorinostat] (partner 1 µM)
How it was run: as §1

Dabrafenib + Trametinib = compound: CC(C)(C)c1nc(-c2cccc(NS(=O)(=O)c3c(F)cccc3F)c2F)c(-c2ccnc(N)n2)s1 [Dabrafenib] + CC(=O)Nc1cccc(-n2c(=O)n(C3CC3)c(=O)c3c(Nc4ccc(I)cc4F)n(C)c(=O)c(C)c32)c1 [Trametinib] (partner 0.02 µM)
How it was run: as §1

Dabrafenib + AZD7762 = compound: CC(C)(C)c1nc(-c2cccc(NS(=O)(=O)c3c(F)cccc3F)c2F)c(-c2ccnc(N)n2)s1 [Dabrafenib] + NC(=O)Nc1cc(-c2cccc(F)c2)sc1C(=O)N[C@H]1CCCNC1 [AZD7762] (partner 0.2 µM)
How it was run: as §1

SW 900
relative viability (Dabrafenib; 0.009487 µM): 0.84
relative viability (Dabrafenib; 0.03 µM): 0.589
relative viability (Dabrafenib; 0.09487 µM): 0.665
relative viability (Dabrafenib; 0.3 µM): 1.02
relative viability (VX-702 + OSI-027; first compound 0.02 µM): 0.565
relative viability (VX-702 + OSI-027; first compound 0.2 µM): 0.676
relative viability (VX-702 + OSI-027; first compound 0.6325 µM): 0.592
relative viability (VX-702 + OSI-027; first compound 2 µM): 0.765
relative viability (VX-702 + Vorinostat; first compound 0.02 µM): 0.492
relative viability (VX-702 + Vorinostat; first compound 0.2 µM): 0.444
relative viability (VX-702 + Vorinostat; first compound 0.6325 µM): 0.558
relative viability (VX-702 + Vorinostat; first compound 2 µM): 0.516
relative viability (Dabrafenib + Trametinib; first compound 0.009487 µM): 0.671
relative viability (Dabrafenib + Trametinib; first compound 0.09487 µM): 1.04
relative viability (Dabrafenib + Trametinib; first compound 0.3 µM): 0.93
relative viability (Dabrafenib + AZD7762; first compound 0.009487 µM): 0.578
relative viability (Dabrafenib + AZD7762; first compound 0.09487 µM): 0.845
relative viability (Dabrafenib + AZD7762; first compound 0.3 µM): 0.875
